Legend:
FYN = molecular target: T1, FYN (Homo sapiens, UniProt P06241); assay: KINOMEscan competition binding screen, FYN; settings: for remaining binding at 10 µM: read-out: % Ctrl @ 10 μM
T1 construct: purchased Eurofins DiscoverX Corporation
Method: (§1) The KINOMEscan™ screening platform (Eurofins DiscoverX Corporation, San Diego, USA) was performed using an active site-directed competition binding assay to quantitatively measure interactions between BK40143, BK40197, BK40195, and BK40196 and more than 450 human kinases and disease relevant mutant variants. […] Screening “hits” were identified by measuring the amount of kinase captured in test (BK40143, BK40197, BK40195, and BK40196) versus control samples by using a quantitative and ultra-sensitive qPCR method that detects the associated DNA label. BK40143, BK40197, BK40195, and BK40196 were screened at 10 μM concentration, and results for primary screen binding interactions were reported as ‘% Ctrl’ (POC), where lower numbers indicate stronger hits and calculated as follows:
(§2) [formula] • test compound=BK40143 or BK40197 or BK40195 or BK40196 • negative control=DMSO (100% Ctrl) • positive control=control compound (0% Ctrl)
(§3) Based on screening data of profiled compounds, a proportional relationship between primary screening results and corresponding compound/target affinities can be described as binding constants (Kd values) for the indicated ranges of percent of control (PoC) values, with tighter binding (higher affinity) interactions associated with lower PoC values, and weaker binding (lower affinity) associated with higher PoC values. Briefly, kinase-tagged T7 phage strains were grown in parallel in 24-well blocks in an E. coli host derived from the BL21 strain. E. coli were grown to log-phase and infected with T7 phage from a frozen stock (multiplicity of infection=0.4) and incubated with shaking at 32° C. until lysis (90-150 minutes). The lysates were centrifuged (6,000×g) and filtered ([…]) to remove cell debris. The remaining kinases were produced in HEK-293 cells and subsequently tagged with DNA for qPCR detection. Streptavidin-coated magnetic beads were treated with biotinylated small molecule ligands for 30 minutes at room temperature to generate affinity resins for kinase assays. The liganded beads were blocked with excess biotin and washed with blocking buffer (SeaBlock (Pierce), 1% BSA, 0.05% Tween 20, 1 mM DTT) to remove unbound ligand and to reduce non-specific phage binding. Binding reactions were assembled by combining kinases, liganded affinity beads, and test compounds in 1× binding buffer (20% SeaBlock, 0.17×PBS, 0.05% Tween 20, 6 mM DTT). Test compounds were prepared as 100× stocks in 100% DMSO and directly diluted into the assay. All reactions were performed in polypropylene 384-well plates in a final volume of 0.02 ml. The assay plates were incubated at room temperature with shaking for 1 hour and the affinity beads were washed with wash buffer (1×PBS, 0.05% Tween 20). The beads were then re-suspended in elution buffer (1×PBS, 0.05% Tween 20, 0.5 μM non-biotinylated affinity ligand) and incubated at room temperature with shaking for 30 minutes. The kinase concentration in the eluates was measured by qPCR.

mast cells (blood) = assay: MC maturation in blood of transgenic APP mice by flow cytometry; assay type: in vivo; settings: six weeks, vs DMSO
Method: 12-month-old transgenic APP mice were injected intraperitoneally with either 5 mg/kg BK40143 or DMSO for six weeks before whole-blood samples were collected into tubes with 1000 U/mL heparin. Blood samples were then treated with the three flow-conjugated antibodies and analyzed for maturation of mast cell progenitors to mature mast cells, as described in Examples 3 and 4. Group differences were compared using an unpaired Student's t-test.
(§4) 12-month-old transgenic APP mice were injected intraperitoneally with either 25 mg/kg BK40195 or DMSO for six weeks before having whole-blood samples collected into tubes containing 1000 U/mL heparin. Blood samples were then treated with the three flow-conjugated antibodies and analyzed for maturation of mast cell progenitors to mature mast cells, as described in Example 5. Differences were compared using an unpaired Student's t-test.
as §4, with “45” for “25”, “BK40197” for “BK40195”

KIT (A829P) = molecular target: T2, KIT (A829P) (Homo sapiens, UniProt P10721, A829P); assay: KINOMEscan competition binding screen, KIT (A829P); settings: for remaining binding at 10 µM: read-out: % Ctrl @ 10 μM
T2 construct: purchased Eurofins DiscoverX Corporation
T2 sequence (P10721 26-976 A829P): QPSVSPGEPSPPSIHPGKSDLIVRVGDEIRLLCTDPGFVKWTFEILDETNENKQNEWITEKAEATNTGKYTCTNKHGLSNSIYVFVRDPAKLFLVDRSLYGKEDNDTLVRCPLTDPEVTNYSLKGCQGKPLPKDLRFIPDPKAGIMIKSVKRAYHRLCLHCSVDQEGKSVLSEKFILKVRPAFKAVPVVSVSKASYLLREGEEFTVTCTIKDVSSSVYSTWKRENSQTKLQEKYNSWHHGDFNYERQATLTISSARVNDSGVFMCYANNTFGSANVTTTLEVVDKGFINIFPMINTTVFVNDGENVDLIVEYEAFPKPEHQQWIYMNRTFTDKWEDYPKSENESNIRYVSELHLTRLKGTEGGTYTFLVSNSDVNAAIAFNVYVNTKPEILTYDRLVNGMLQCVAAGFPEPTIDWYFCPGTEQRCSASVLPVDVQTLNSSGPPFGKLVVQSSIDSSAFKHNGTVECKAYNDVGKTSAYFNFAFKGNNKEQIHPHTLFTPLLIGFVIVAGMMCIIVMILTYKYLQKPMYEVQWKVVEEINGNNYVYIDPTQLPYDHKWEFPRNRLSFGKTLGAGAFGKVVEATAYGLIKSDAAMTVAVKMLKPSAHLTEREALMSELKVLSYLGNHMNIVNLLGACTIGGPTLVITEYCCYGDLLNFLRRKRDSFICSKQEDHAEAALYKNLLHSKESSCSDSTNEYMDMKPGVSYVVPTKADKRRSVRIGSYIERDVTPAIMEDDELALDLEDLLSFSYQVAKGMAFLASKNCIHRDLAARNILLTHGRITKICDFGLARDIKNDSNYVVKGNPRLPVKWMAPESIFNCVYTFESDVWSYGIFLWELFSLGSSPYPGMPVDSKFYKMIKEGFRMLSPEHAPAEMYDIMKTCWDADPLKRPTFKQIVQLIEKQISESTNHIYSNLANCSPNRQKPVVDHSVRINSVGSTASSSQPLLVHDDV
Method: as §1, §2, §3

KIT (V559D, T670I) = molecular target: T3, KIT (V559D, T670I) (Homo sapiens, UniProt P10721, T670I/V559D); assay: KINOMEscan competition binding screen, KIT (V559D, T670I); settings: for remaining binding at 10 µM: read-out: % Ctrl @ 10 μM
T3 construct: purchased Eurofins DiscoverX Corporation
T3 sequence (P10721 26-976 V559D/T670I): as the sequence (P10721 26-976 A829P) above, with V534D, T645I, P804A counted along it
Method: as §1, §2, §3

c-kit = molecular target: T4, c-kit (Homo sapiens, UniProt P10721); assay: KINASESEEKER competition binding assay, c-kit; settings: minimum 8-point curve, duplicate
T4 construct: purchased Luceome Biotechnologies, LLC
T4 sequence (P10721 26-976): as the sequence (P10721 26-976 A829P) above, with P804A counted along it
Method: Kinase assays were performed using KINASESEEKER™ (Luceome Biotechnologies, LLC; Tucson, AZ). KINASESEEKER™ is a homogeneous competition binding assay in which the displacement of an active site-dependent probe by an inhibitor is measured by a change in luminescence signal. Luminescence readout translates into a highly sensitive and robust assay with low background and minimal interference from test compounds. See J. Am. Chem. Soc., 2010, 132, 11727-11735.
Stock solutions of compounds were serially diluted in DMSO to make assay stocks. Prior to initiating IC50 determination, the test compounds were evaluated for false positives against split-luciferase. The compounds were screened against kinases at a minimum of 8 different concentrations in duplicate. For kinase assays, a 24 μL aliquot of lysate containing Cfluc-kinase and Fos-Nfluc was incubated for 2 hours with either 1 μL of DMSO (for no-inhibitor control) or compound solution in DMSO in presence of a kinase specific probe. 80 μL of luciferin assay reagent was added to each solution and luminescence was immediately measured on a luminometer.
The % Inhibition and % Activity Remaining was calculated using the following equation: […]
The % Activity Remaining was plotted against compound concentration and the IC50 was determined for each compound using a minimum 8-point curve.

T1 sequence (P06241 whole entry): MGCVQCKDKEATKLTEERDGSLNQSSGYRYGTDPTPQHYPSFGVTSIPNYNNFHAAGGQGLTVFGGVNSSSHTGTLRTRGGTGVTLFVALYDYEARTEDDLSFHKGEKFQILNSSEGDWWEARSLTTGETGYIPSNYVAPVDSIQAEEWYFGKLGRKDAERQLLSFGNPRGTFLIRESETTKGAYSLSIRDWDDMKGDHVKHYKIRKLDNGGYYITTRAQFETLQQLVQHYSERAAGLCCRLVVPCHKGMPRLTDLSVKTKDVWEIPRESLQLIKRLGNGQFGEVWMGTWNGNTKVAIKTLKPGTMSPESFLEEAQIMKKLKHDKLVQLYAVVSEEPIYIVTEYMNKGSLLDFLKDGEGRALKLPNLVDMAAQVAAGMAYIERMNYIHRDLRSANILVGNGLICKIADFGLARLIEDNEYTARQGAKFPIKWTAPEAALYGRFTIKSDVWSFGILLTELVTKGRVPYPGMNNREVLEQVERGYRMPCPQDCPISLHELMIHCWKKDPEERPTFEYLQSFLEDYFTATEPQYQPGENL

Row | inhibition at 10 µM (FYN) [%] | remaining binding at 10 µM (FYN) [%] | inhibition at 10 µM (KIT (A829P)) [%] | remaining binding at 10 µM (KIT (A829P)) [%] | inhibition at 10 µM (KIT (V559D, T670I)) [%] | remaining binding at 10 µM (KIT (V559D, T670I)) [%] | IC50 (c-kit) [nM] | SMILES | ratio of immature MCs (CD117 only) to mature MCs (CD117 and FceR1) (mast cells (blood); 5 mg/kg intraperitoneal, p=0.03) | ratio of immature MCs (CD117 only) to mature MCs (CD117 and FceR1) (mast cells (blood); 25 mg/kg intraperitoneal, p=0.04) | ratio of immature MCs (CD117 only) to mature MCs (CD117 and FceR1) (mast cells (blood); 45 mg/kg intraperitoneal, p=0.07)
1 | 90 | 10 | 48 | 52 | 81 | 19 | 750 ± 110 | Cc1cccc(-c2cc3nccc(Nc4ccccc4)c3s2)c1 [BK40143] | significantly increased | – | –
2 | 97.6 | 2.4 | 93.7 | 6.3 | 97.5 | 2.5 | 288 ± 23 | COc1cccc(Nc2ccnc3cc(-c4cccc(C)c4)sc23)c1 [BK40195] | – | significantly increased | –
3 | 100 | 0 | 79 | 21 | 97.6 | 2.4 | 276 ± 35 | Cc1cccc(-c2cc3nccc(Nc4cccc(O)c4)c3s2)c1 [BK40196] | – | – | –

Row | SMILES | inhibition at 10 µM (FYN) [%] | remaining binding at 10 µM (FYN) [%] | inhibition at 10 µM (KIT (A829P)) [%] | remaining binding at 10 µM (KIT (A829P)) [%] | inhibition at 10 µM (KIT (V559D, T670I)) [%] | remaining binding at 10 µM (KIT (V559D, T670I)) [%] | IC50 (c-kit) [nM] | ratio of immature MCs (CD117 only) to mature MCs (CD117 and FceR1) (mast cells (blood); 5 mg/kg intraperitoneal, p=0.03) | ratio of immature MCs (CD117 only) to mature MCs (CD117 and FceR1) (mast cells (blood); 25 mg/kg intraperitoneal, p=0.04) | ratio of immature MCs (CD117 only) to mature MCs (CD117 and FceR1) (mast cells (blood); 45 mg/kg intraperitoneal, p=0.07)
4 | Cc1cccc(-c2cc3nccc(N4CCOCC4)c3s2)c1 [BK40197] | 44 | 56 | 0 | 100 | 80 | 20 | – | – | – | significantly increased
